Experimental data as given in patent US11366121B2, “Specific GNAI:GIV interaction screening assays, methods and compositions” (The Regents of the University of California, priority 2017, dated 2022).

Key:
GIV:Gαi3 interaction = GIV:Gαi3 interaction (Homo sapiens, UniProt P08754); test: fluorescence polarization (FP) assay monitoring the GIV:Gαi3 interaction, dose response curves; format: binding; conditions: FIG. 11D
Experimental: (§1) FIGS. 11A-11E. A HTS-compatible fluorescence polarization (FP) assay to monitor the GIV:Gαi3 interaction.
(§2) FIG. 14. Kd's determined from fluorescence polarization assays with FITC peptides and hGαi3.
(§3) A pilot screen of the LOPAC1280 library (collection of known bioactive compounds) was conducted and identified lead compounds with inhibitory activity (FIG. 11A). A virtual ligand screen (VLS) of the same library (LOPAC1280) was conducted using in silico docking methods (FIG. 11B). The results from both screens were compared. […] From the virtual screen 7 ‘hits’ (FIG. 11B) were identified. Importantly, 2 of the virtual screen hits matched the results from the FP assay and a third was validated as a GIV:Gαi inhibitor. Compounds were validated by dose response curves (FIG. 11D). […] None of the other 4 hits predicted by the VLS inhibited binding.

GIV:Gαi = GIV:Gαi (Homo sapiens, UniProt P08754); test: GST-pulldown assay confirming hits; format: binding; conditions: FIG. 11E
Experimental: as §3

[1] = target: GIV:Gαi3 (hGαi3 with FITC-labelled GIV C-terminal peptide KTGSPGSEVVTLQQFLEESNKLTSVQIKSSS, SEQ ID NO: 1) (Homo sapiens, UniProt P08754); test: Inhibition of GIV:Gαi3 interaction by fluorescence polarization (FITC-GIV peptide binding to hGαi3); confirmed hits, FIG. 10
Text: FIG. 10. Further analysis of confirmed hits validate the assay to identify inhibitors of the target.
as §1, §2
The present invention provides a research tool assay for identifying a specific modulator of GNAI, comprising: (a) combining a drug candidate with GNAI and a C-terminal GIV peptide and determining if the drug candidate inhibits GNAI interaction with the C-terminal GIV peptide; and (b) combining the drug candidate with GNAI and a DAPLE peptide and determining if the drug candidate inhibits GNAI interaction with DAPLE peptide.
In embodiments, the C-terminal GIV peptide comprises the amino acid sequence of SEQ ID NO: 1. In embodiments, the DAPLE peptide comprises the amino acid sequence of SEQ ID NO:2.
In embodiments, the determining steps are detected by fluorescent polarization.
In embodiments, the invention provides an assay and method for screening for drug candidates which act as specific inhibitors against the GNAI:GIV interface. […]
As for the first step in the assay, this small region of 31 aa GIV peptide: […] (SEQ ID NO: 1) was arrived at after careful biochemistry determined that anything less than this is less efficient in binding or activation the G protein, GNAI. […]

Sequence of GIV:Gαi3 interaction (P08754 whole entry): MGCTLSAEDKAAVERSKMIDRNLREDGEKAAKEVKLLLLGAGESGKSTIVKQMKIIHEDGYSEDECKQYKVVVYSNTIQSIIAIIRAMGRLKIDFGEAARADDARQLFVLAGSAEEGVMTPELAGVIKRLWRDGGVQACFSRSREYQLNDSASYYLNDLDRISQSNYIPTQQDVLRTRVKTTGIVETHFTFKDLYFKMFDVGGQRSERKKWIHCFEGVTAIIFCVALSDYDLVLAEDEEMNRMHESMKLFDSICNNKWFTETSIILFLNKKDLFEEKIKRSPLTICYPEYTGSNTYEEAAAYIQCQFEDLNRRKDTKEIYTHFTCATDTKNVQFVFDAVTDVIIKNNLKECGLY
Sequence of GIV:Gαi (P08754 whole entry): as above
Sequence of UniProt P08754 (P08754 whole entry): as above

SMILES | IC50 (GIV:Gαi3 interaction) [µM] | confirmation as hit by GST-pulldown (GIV:Gαi) | Ki [1] [µM]
O=C(O)C1=CC(=C(c2ccc(O)c(C(=O)O)c2)c2ccc(O)c(C(=O)O)c2)C=CC1=O [ATA, aurintricarboxylic acid] | ~5 |  | 
O=C(Nc1cccc(C(=O)Nc2ccc(S(=O)(=O)[O-])c3cc(S(=O)(=O)[O-])cc(S(=O)(=O)[O-])c23)c1)Nc1cccc(C(=O)Nc2ccc(S(=O)(=O)[O-])c3cc(S(=O)(=O)[O-])cc(S(=O)(=O)[O-])c23)c1.[Na+].[Na+].[Na+].[Na+].[Na+].[Na+] [NF023, 8,8′-[carbonylbis(imino-3,1-phenylenecarbonylimino)]bis(1,3,5-naphthalene-trisulfonic acid) hexasodium salt] | ~5 | true hits | 
Cc1ccc(C(=O)Nc2ccc(S(=O)(=O)O)c3cc(S(=O)(=O)O)cc(S(=O)(=O)O)c23)cc1NC(=O)c1cccc(NC(=O)Nc2cccc(C(=O)Nc3cc(C(=O)Nc4ccc(S(=O)(=O)O)c5cc(S(=O)(=O)O)cc(S(=O)(=O)O)c45)ccc3C)c2)c1 [Suramin, suramin] |  |  | 49
Cc1ccc(C(=O)Nc2ccc(S(=O)(=O)O)c3cc(S(=O)(=O)O)cc(S(=O)(=O)O)c23)cc1NC(=O)c1cccc(NC(=O)Nc2cccc(C(=O)Nc3cc(C(=O)Nc4ccc(S(=O)(=O)O)c5cc(S(=O)(=O)O)cc(S(=O)(=O)O)c45)ccc3C)c2)c1 [suramin] | ~805 |  | 
CC[C@@]1(O)C(=O)OCc2c1cc1n(c2=O)Cc2cc3c(CN(C)C)c(O)ccc3nc2-1 [topotecan] |  | false positive | 
